Measurements as given in publication PMC3510438, “The transmembrane tyrosines Y56, Y91 and Y167 play important roles in determining the affinity and transport rate of the rabbit proton-coupled peptide transporter PepT1” (The International Journal of Biochemistry & Cell Biology, 2009).
Positions count from the first letter of the chain named. Where a SMILES comes first, the peptide text is derived from it.

What was measured:
Y12F-rPepT1 = molecular target: T1, Y12F-rPepT1 (Oryctolagus cuniculus, UniProt P36836, Y12F); assay: Competition of [3H]-D-Phe-L-Gln uptake into Xenopus oocytes, Ki; assay type: cell-based, rabbit; settings: against 0.4 μM [3H]-D-Phe-L-Gln uptake
T1 construct: expressed in transfected cells; host or cells: Xenopus laevis oocytes injected with cRNA
T1 sequence (P36836 1-707 Y12F): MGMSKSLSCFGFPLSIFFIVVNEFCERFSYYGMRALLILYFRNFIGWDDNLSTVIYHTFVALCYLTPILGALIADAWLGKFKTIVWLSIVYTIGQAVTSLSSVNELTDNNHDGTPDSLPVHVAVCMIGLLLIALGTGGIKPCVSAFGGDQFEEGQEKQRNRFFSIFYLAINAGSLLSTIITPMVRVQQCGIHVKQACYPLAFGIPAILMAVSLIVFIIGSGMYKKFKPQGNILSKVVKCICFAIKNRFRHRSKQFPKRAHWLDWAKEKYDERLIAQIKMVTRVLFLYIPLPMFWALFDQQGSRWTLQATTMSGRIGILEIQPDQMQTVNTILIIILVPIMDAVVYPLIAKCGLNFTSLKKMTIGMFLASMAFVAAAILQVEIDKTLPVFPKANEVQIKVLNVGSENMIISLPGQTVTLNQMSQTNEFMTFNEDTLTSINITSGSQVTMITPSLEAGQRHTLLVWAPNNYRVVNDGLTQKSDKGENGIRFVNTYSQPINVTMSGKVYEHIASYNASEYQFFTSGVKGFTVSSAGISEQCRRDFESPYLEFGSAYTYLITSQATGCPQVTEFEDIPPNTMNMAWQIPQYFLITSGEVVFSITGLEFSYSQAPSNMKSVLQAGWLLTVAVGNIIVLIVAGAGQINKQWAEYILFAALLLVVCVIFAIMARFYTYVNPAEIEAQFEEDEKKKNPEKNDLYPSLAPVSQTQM
Description: (§1) rPepT1 constructs were linearised with XbaI (New England Biolabs, UK) and cRNA generated by in vitro transcription (T7 mMessage mMachine, Ambion, Cambridgeshire, UK). Xenopus laevis oocytes were obtained under MS222 anaesthesia (0.2%, w/v) in accordance with the UK Animals (Scientific Procedures) Act, 1986, and maintained at 18 °C in modified Barth's medium (88 mM NaCl, 1 mM KCl, 0.82 mM MgSO4, 2.4 mM NaHCO3, 0.42 mM CaCl2, 10 mM Hepes, 5 mM sodium pyruvate, 50 μg ml^−1 gentamicin (Fluka, Poole, UK), adjusted to pH 7.6 with 1 M NaOH). Transport measurements were performed at least 72 h after micro-injection of oocytes with 27nl cRNA (1 μg/μl), with medium changed daily.
(§2) Uptake of [^3H]-D-Phe-L-Gln (17.4 Ci/mmole, custom synthesised, Cambridge Research Biochemicals, Stockton-on-Tees, UK) was performed as previously described ([Meredith, 2004]). Briefly, 5 oocytes were incubated in 100 μl of uptake medium (95 mM NaCl, 2 mM KCl, 1 mM CaCl2, 0.42 mM MgCl2, 10 mM Tris/Hepes pH 7.4 or Tris/Mes pH 5.5) with tracer (0.4 μM) [^3H]-D-Phe-L-Gln. After incubation, the oocytes were washed sequentially five times in 1 ml of ice-cold 120 mM NaCl solution, lysed individually with 100 μl 2% (w/v) SDS and liquid scintillation counted. As a control non-injected oocytes were also incubated in uptake medium with D-Phe-L-Gln as above.
(§3) The affinity of wild-type and mutant rPepT1 transporters were assessed by competition studies with 0.4 μM [^3H]-D-Phe-L-Gln and Gly-L-Gln present in the uptake medium in concentrations from 0 to 2 mM using the protocol above, and the Ki calculated using the method of [Deves and Boyd (1989)].

Y91R-rPepT1 = molecular target: T2, Y91R-rPepT1 (Oryctolagus cuniculus, UniProt P36836, Y91R); assay: as above; assay type: cell-based, rabbit; settings: pHout 7.4; against 0.4 μM [3H]-D-Phe-L-Gln uptake
T2 construct: expressed in transfected cells; host or cells: Xenopus laevis oocytes injected with cRNA
T2 sequence (P36836 1-707 Y91R): T1 sequence (P36836 1-707 Y12F) with F12Y, Y91R
Description: as §1, §2, §3

## NCC(=O)N[C@@H](CCC(N)=O)C(=O)O [Gly-L-Gln] (H-Gly-Gln-OH)
Y12F-rPepT1; pHout 5.5
  Ki: 220 ± 20 µM
Y12F-rPepT1; pHout 7.4
  Ki: 90 ± 20 µM
Y91R-rPepT1
  Ki: 3 ± 1 µM
